Laboratory results as given in US8916526B2, “Flavanone derivative” (National University Corporation Okayama University, priority 2009, dated 2014).

What was measured:
MRSA N315 = assay: In vitro infectivity assay (MIC), broth dilution, Exp. Ex. 1-1; assay type: cell-based, Staphylococcus aureus; conditions: Staphylococcus aureus; MRSA N315; Mueller-Hinton broth, 35° C., 24 hours; read-out: MIC MRSA N315
How it was run: (§1)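 CLSI broth microdilution: strains inoculated at about 10^5 CUF/[…] in Mueller-Hinton broth with 0.85% NaCl, incubated 35° C. for 24 hours. MIC read as lowest inhibitory concentration; measured three times.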

MRSA OM481 = assay: as above; assay type: cell-based, Staphylococcus aureus; conditions: Staphylococcus aureus; MRSA OM481; Mueller-Hinton broth, 35° C., 24 hours; read-out: MIC MRSA OM481
How it was run: as §1

MRSA OM58 = assay: as above; assay type: cell-based, Staphylococcus aureus; conditions: Staphylococcus aureus; MRSA OM58; Mueller-Hinton broth, 35° C., 24 hours; read-out: MIC MRSA OM58
How it was run: as §1

MSSA FDA 209P = assay: as above; assay type: cell-based, Staphylococcus aureus; conditions: Staphylococcus aureus; MSSA FDA 209P; Mueller-Hinton broth, 35° C., 24 hours; read-out: MIC MSS 209P
How it was run: as §1

VRE FN-1 = assay: as above; assay type: cell-based, enterococci; conditions: Enterococcus; VRE FN-1; Mueller-Hinton broth, 35° C., 24 hours; read-out: MIC VRE FN-1
How it was run: as §1

VRE NCTC12201 = assay: as above; assay type: cell-based, enterococci; conditions: Enterococcus; VRE NCTC12201; Mueller-Hinton broth, 35° C., 24 hours; read-out: MIC VRE NCTC12201
How it was run: as §1

[1] = test system: Methicillin sensitive S. aureus 209P; assay: In vitro infectivity assay (MIC), Exp. Ex. 2-1; assay type: cell-based, Staphylococcus aureus; conditions: Staphylococcus aureus, 209P / MSSA; Gram-positive; microdilution, MIC after 24 h; read-out: MIC MSSA 209P
How it was run: (§2)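 Inoculate bacteria (about 10^5 CUF/[…]) into NaCl-supplemented (0.85%) Mueller-Hinton broth with compound dilutions, incubate 24 hours at 35° C, then record the minimum inhibitory concentration. Repeated three times.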

[2] = test system: Methicillin-resistant S. aureus COL; assay: In vitro infectivity assay (MIC), Exp. Ex. 2-1; assay type: cell-based, Staphylococcus aureus; conditions: Staphylococcus aureus, MRSA; Gram-positive; microdilution, MIC after 24 h
[3] = test system: Methicillin-resistant S. aureus N315; assay: In vitro infectivity assay (MIC), Exp. Ex. 2-1; assay type: cell-based, Staphylococcus aureus; conditions: Staphylococcus aureus, MRSA; Gram-positive; microdilution, MIC after 24 h; read-out: MIC MRSA N315
How it was run: as §2

[4] = test system: Methicillin-resistant S. aureus OM481; assay: In vitro infectivity assay (MIC), Exp. Ex. 2-1; assay type: cell-based, Staphylococcus aureus; conditions: Staphylococcus aureus, MRSA; Gram-positive; microdilution, MIC after 24 h; read-out: MIC MRSA OM481
How it was run: as §2

[5] = test system: Methicillin-resistant S. aureus OM584; assay: In vitro infectivity assay (MIC), Exp. Ex. 2-1; assay type: cell-based, Staphylococcus aureus; conditions: Staphylococcus aureus, MRSA; Gram-positive; microdilution, MIC after 24 h; read-out: MIC MRSA OM584
How it was run: as §2

[6] = test system: Streptococcus pneumoniae R6; assay: In vitro infectivity assay (MIC), Exp. Ex. 2-1; assay type: cell-based; conditions: Streptococcus pneumoniae, R6; Gram-positive; microdilution, MIC after 24 h; read-out: MIC S. Pneumoniae R6

Measured: MIC

O=c1c(O)c(-c2ccc(O)c(O)c2)oc2cc(O)cc(O)c12 [Quercetin, quercetin, reference compound]
> 128 µg/mL: all assays above
